# Columns and labels:
# [1] = in vivo; design: species or system male SD rats; conditions: male, SD, rat
# Protocol: Test animals: male SD rats, weighing 180-280 g, purchased from Beijing Vital River Laboratory Animal Technology Co., Ltd.; animal Certificate of Conformity: SCXK (Beijing) 2006-0009. Six rats were tested for each compound. the compounds of the present invention, prepared in accordance with the methods of above Examples, dissolved in physiological saline. tigecycline, dissolved in physiological saline. Administration of the compounds of the present invention: intravenous bolus injection (iv), dose: 5 mg/kg, administrating volume: 5 mL/kg; gavage (po), dose: 5 mg/kg, administrating volume: 5 mL/kg. Administration of tigecycline: gavage (po), dose: 10 mg/kg, administrating volume: 5 mL/kg. Prior to administration help but water fasting for 16 hours, 4 hours after administration to food. Compound 9: iv blood sampling time point: denoted by 0 min before administration, 5 min, 15 min, 30 min, 1 […] after administration; po blood sampling time point: denoted by 0 min before administration, 5 min, 15 min, 30 min, 1 […] after administration; Compound 20: iv blood sampling time point: 5 min, 15 min, 30 min, 1 […] after administration; po blood sampling time point: 10 min, 30 min, 1 […] after administration; Compound 23: iv blood sampling time point: denoted by 0 min before administration, 5 min, 15 min, 30 min, 1 […] after administration; po blood sampling time point: denoted by 0 min before administration, 5 min, 15 min, 30 min, 1 […] after administration; Tigecycline: iv blood sampling time point: 5 min, 15 min, 30 min, 1 h, 2 h, 4 h, 6 h, 8 h after administration; po blood sampling time point: 10 min, 30 min, 1 […] after administration. Each time point is taken around 100 μl whole blood and placed in a heparinized tube, centrifugated at 8000 rpm/min at 4° C. for 6 minutes in a low-temperature high-speed centrifuge to separate plasma, the resulting plasma was frozen at -80° C. refrigerator. Plasma samples analysis: 20 μl of plasma was taken and added 200 μl of internal standard solution, subjected to vortex for 3 minutes, then to centrifugation at 12,000 rpm/min for 5 minutes. 100 μl of supernatant was taken and analyzed using LC-MS/MS. Formula Absolute Bioavailability F%=[AUC](po)×Dose(iv)/[AUC](iv)×Dose(po)
# [2] = tested on: Methicillin-resistant Staphylococcus aureus (MRSA); experiment: antibacterial activity in vitro, agar dilution method; type: cell-based; conditions: Table 5, MIC90 = 90% inhibitory concentration
# Text: (§1) The antibacterial spectrum and in vitro antibacterial activity of the compound of the present invention
# (§2) Experimental method: the agar dilution method, with reference to Clinical And Laboratory Standards Institute. Methods for Dilution Antimicrobial Susceptibility Tests for Bacteria That Grow Aerobically; Approved Standard-Seventh Edition. CLSI Document M7-A7. Vol 26, no. 2, Wayne, Pa.: Clinical and Laboratory Standards Institute, 2006.
# (§3) Wherein MIC represents the minimum inhibitory concentration, MIC90 represents the 90% inhibitory concentration.
# [3] = tested on: Acinetobacter baumannii; experiment: as above; type: cell-based; conditions: Table 5, MIC90 = 90% inhibitory concentration
# Text: as §1, §2, §3
# [4] = tested on: Streptococcus constellatus; experiment: as above; type: cell-based; conditions: Table 5, MIC90 = 90% inhibitory concentration
# Text: as §1, §2, §3
# [5] = tested on: Hemophilus influenzae; experiment: as above; type: cell-based; conditions: Haemophilus influenzae; Table 5; MIC90 = 90% inhibitory concentration
# Text: as §1, §2, §3
# [6] = tested on: Staphylococcus aureus; experiment: as above; type: cell-based
# Text: as §1, §2, §3
# [7] = male SD rats, 5 mg/kg iv, cited from earlier work
# [8] = cited from earlier work
# [9] = monkey, oral; cited from earlier work
# [10] = tested on: Staphylococcus aureus; experiment: bactericidal effects in vivo in neutropenic mouse thigh model with Staphylococcus aureus infection; design: species or system mice; conditions: for change values (24 h vs blank group mean 0 h) / log10 CFU for each thigh, mean ± standard deviations (24 h): 2 dose times, subcutaneous
# Protocol: Bactericidal Effects of the Present Compounds In Vivo in Mouse Thigh Model with Staphylococcus aureus Infection SPF grade CD-1 (ICR) female mice housed in SPF environment, weighing 25±2 g, purchased from Beijing Vital River Laboratory Animal Technology Co., Ltd., licensed […] No: SCXK (Beijing) 2006-0009. Staphylococcus aureus: purchased from Shanghai Renji Hospital. Four days before bacterial infection, intraperitoneal (ip) injection of cyclophosphamide 150 mg/kg; 1 day before bacterial infection, intraperitoneal (ip) injection of cyclophosphamide 100 mg/kg; Picked fresh Staphylococcus aureus single colonies which were plate cultured for 18 h, and inoculated into broth and cultured at 35° C. for 18 h. The bacterial suspension was diluted with broth, and 0.5 McFarland turbidity standard indicator bacteria suspension was prepared with a McFarland turbiditor, 10-fold diluted with broth and injected into the thigh muscle of mice in an amount of 0.1 mL for each thigh. The concentration of the bacteria suspension was about 10^6-10^7 CFU/ml. The inoculum concentration was determined by an agar-plate count method. Blank Group: the animals were sacrificed by dislocation at 2 h (recorded as 0 h) after the inoculation of bacteria. Solvent group: The first administration time was set at 2 h (denoted as 0 h) after the animals were infected with bacteria, the solvent was subcutaneously administrated, the animals were sacrificed by dislocation at 24 h after the administration. Treatment group: The first administration time was set at 2 h (denoted as 0 h). […] The thigh muscle tissue was separated from the sacrificed animals, and 5 mL of sodium chloride injection was added, homogenated. The homogenate obtained were diluted series, taken 0.05 mL and inoculated to agar plates, two plates were inoculated in parallel for each gradient bacterial suspension, and incubated at 35° C. for 18 h. Observe the growth of the colonies on each plate, and select the plates with the number of colonies between 30-300 for colony count. The number of colonies was recorded as n1, n2. N represents the diluted fold. The number of colonies (units CFU) for each thigh was calculated according to the formula of “(n1+n2)/2/0.05×5×N”. A logarithm to the base 10 for the number of colonies of each thigh was calculated to obtain log10 CFU value for each thigh.
compound,measurement,setting,value
CN(C)c1cc(NC(=O)CNC(C)(C)C)c(O)c2c1C[C@H]1C[C@H]3[C@H](N(C)C)C(O)=C(C(N)=O)C(=O)[C@@]3(O)C(O)=C1C2=O [tigecycline],AUC(0-inf),"[1]; iv, 5 mg/kg",5120 ng·h/mL
same,Vd,"[1]; iv, 5 mg/kg",4.47 L/kg
same,clearance,"[1]; iv, 5 mg/kg",16.5 mL/min/kg
same,half-life,"[1]; iv, 5 mg/kg",3.8 h
same,AUC(0-inf),"[1]; po, 10 mg/kg",296 ng·h/mL
same,Cmax,"[1]; po, 10 mg/kg",31.8 ng/mL
same,Tmax,"[1]; po, 10 mg/kg",0.5 h
same,bioavailability,"[1]; po, 10 mg/kg",1.8%
same,MIC90,[2],1 µg/mL
same,MIC90,[3],4 µg/mL
same,MIC90,[4],0.25 µg/mL
same,MIC90,[5],0.5 µg/mL
same,MIC90,"[6]; Staphylococcus aureus, Table 5, MIC90 = 90% inhibitory concentration",0.5 µg/mL
same,MIC,"[6]; Table 10, Staphylococcus aureus of the thigh model",0.25 µg/mL
same,AUC,[7]; time 0-24 h,3550 ng·h/mL
same,T1/2,[7],1 h
same,absorption in an oral use,[8],can not be absorbed in an oral use
same,absorption in vivo when orally used,[9],can not be absorbed in vivo when orally used
same,change values (24 h vs blank group mean 0 h),[10]; 2 mg/kg/day,1.63 log10 CFU
same,"log10 CFU for each thigh, mean ± standard deviations (24 h)",[10]; 2 mg/kg/day,8.02 ± 0.24 log10 CFU
same,bacteria growing values of each thigh,[10]; 6 mg/kg/day,0.63
same,bactericidal effect against Staphylococcus aureus in vivo in mice,[10]; 6 mg/kg/day,did not show bactericidal effect
same,change values (24 h vs blank group mean 0 h),[10]; 6 mg/kg/day,0.63 log10 CFU
same,"log10 CFU for each thigh, mean ± standard deviations (24 h)",[10]; 6 mg/kg/day,7.02 ± 0.43 log10 CFU
same,change values (24 h vs blank group mean 0 h),[10]; 18 mg/kg/day,−2.19 log10 CFU
same,"log10 CFU for each thigh, mean ± standard deviations (24 h)",[10]; 18 mg/kg/day,4.20 ± 0.25 log10 CFU

# Reference: patent US9365499B2, “9-aminomethyl substituted tetracycline compounds” (KBP Biosciences Co., Ltd., priority 2011, dated 2016)
